# Where a name gives a salt, the structure may show the parent alone.
# Legend:
# [1] = target: T1, Human PKMYT1 (Homo sapiens, UniProt Q99640); assay: PKMYT1 biochemical ADP-Glo enzymatic assay; settings: ADP-Glo; 15 nM PKMYT1 kinase domain, 500 µM ATP, 60 minutes at 26° C.; banded
# T1 construct: Human PKMYT1 75-362 was cloned as a TEV cleavable 6xHis fusion; 6xHis (TEV cleavable) (cleaved yes); made in house; host or cells: bacterial cells
# T1 sequence (Q99640 75-362): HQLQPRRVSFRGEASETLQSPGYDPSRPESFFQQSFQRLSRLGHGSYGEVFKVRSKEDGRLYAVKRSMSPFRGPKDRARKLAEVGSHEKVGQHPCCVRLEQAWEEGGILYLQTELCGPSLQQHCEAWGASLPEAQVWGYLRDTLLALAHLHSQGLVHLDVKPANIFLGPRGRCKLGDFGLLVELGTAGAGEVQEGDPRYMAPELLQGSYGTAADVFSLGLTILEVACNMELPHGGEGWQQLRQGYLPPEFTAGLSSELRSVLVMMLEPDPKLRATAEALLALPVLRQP
# In short: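 PKMYT1 75-362 (His-cleaved, bacterial) 15 nM; ATP 500 µM; HEPES pH 7.5, MgCl2, EGTA, Brij-35, 1% DMSO; 60 min, 26 °C; ADP-Glo Max luminescence; 10-pt 3-fold titration → IC50; replicates within 3-fold, r2 >0.9.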
# [2] = target: T2, WEE1 (Homo sapiens, UniProt P30291); assay: Selectivity versus WEE1 assay (ADP-Glo enzymatic assay); type: biochemical; settings: banded; for IC50: ADP-Glo, 15 nM WEE1, 60 minutes at 26° C.; for PKMYT1 vs. WEE1 selectivity: fold difference in selectivity for PKMYT1 over WEE1, ">N" = at least in this band but could be higher
# T2 construct: purchased Thermo Fisher PR7373A
# T2 sequence (P30291 whole entry): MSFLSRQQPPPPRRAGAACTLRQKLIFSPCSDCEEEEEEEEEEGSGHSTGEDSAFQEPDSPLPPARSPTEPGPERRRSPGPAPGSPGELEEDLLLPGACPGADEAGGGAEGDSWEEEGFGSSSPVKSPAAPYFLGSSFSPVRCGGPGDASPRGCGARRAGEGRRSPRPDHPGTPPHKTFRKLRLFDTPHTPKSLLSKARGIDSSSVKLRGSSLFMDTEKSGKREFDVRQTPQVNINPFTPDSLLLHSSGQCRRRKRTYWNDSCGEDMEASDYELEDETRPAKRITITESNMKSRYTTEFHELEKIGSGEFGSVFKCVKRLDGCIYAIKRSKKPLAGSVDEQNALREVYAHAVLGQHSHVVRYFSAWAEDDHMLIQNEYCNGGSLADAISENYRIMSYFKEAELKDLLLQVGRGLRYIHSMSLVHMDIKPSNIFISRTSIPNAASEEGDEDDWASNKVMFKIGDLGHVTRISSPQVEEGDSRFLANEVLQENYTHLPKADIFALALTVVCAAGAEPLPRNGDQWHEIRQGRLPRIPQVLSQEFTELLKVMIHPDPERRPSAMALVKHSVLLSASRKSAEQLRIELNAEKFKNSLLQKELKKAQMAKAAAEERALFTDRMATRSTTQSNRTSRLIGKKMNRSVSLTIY
# In short: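 15 nM WEE1, 30 µM ATP, 50 mM HEPES pH 7.5, 10 mM MgCl2, 1 mM EGTA, 0.01% Brij-35, 1% DMSO; 60 min, 26° C; ADP-Glo luminescence; IC50 from curve fit, replicates within 3-fold, r2 >0.9.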
IC50 [1] [nM],IC50 [2] [nM],PKMYT1 vs. WEE1 selectivity [2],Structure (SMILES)
< 50,> 11000,X (100-<1000 fold),Cc1ccc(O)c(C)c1NC(=O)c1cnc(Nc2ccn(CC(=O)N3CCN(S(C)(=O)=O)CC3)n2)s1 [BAA-142]
< 50,> 11000,Y (1000-5000 fold),Cc1ccc(O)c(C)c1NC(=O)c1cnc(Nc2ccn(CC(=O)N3C[C@@H]4C[C@H]3CN4C(=O)OC(C)(C)C)n2)s1 [BAA-143]
< 50,1000 to 11000,X (100-<1000 fold),"Cc1ccc(O)c(C)c1NC(=O)c1cnc(Nc2ccn(CC(=O)N3CC4(C3)CN(C(=O)OC(C)(C)C)C4)n2)s1 [BAA-144, tert-butyl 6-[2-[3-[[5-[(3-hydroxy-2,6-dimethyl-phenyl)carbamoyl]thiazol-2-yl]amino]pyrazol-1-yl]acetyl]-2,6-diazaspiro[3.3]heptane-2-carboxylate]"
< 50,> 11000,Y (1000-5000 fold),CC(=O)N1CCN(C(=O)Cn2ccc(Nc3ncc(C(=O)Nc4c(C)ccc(O)c4C)s3)n2)CC1 [BAA-145]
< 50,> 11000,Y (1000-5000 fold),Cc1ccc(O)c(C)c1NC(=O)c1cnc(Nc2ccn(CC(=O)NCC(C)(C)O)n2)s1 [BAA-146]
< 50,> 11000,Y (1000-5000 fold),"Cc1ccc(O)c(C)c1NC(=O)c1cnc(Nc2ccn(CC(=O)NCCO)n2)s1 [BAA-147, N-(3-hydroxy-2,6-dimethyl-phenyl)-2-[[1-[2-(2-hydroxyethylamino)-2-oxo-ethyl]pyrazol-3-yl]amino]thiazole-5-carboxamide]"
< 50,> 11000,Y (1000-5000 fold),"Cc1ccc(O)c(C)c1NC(=O)c1cnc(Nc2ccn(CC(=O)N3CCCCC3)n2)s1 [BAA-149, N-(3-hydroxy-2,6-dimethyl-phenyl)-2-[[1-[2-oxo-2-(1-piperidyl)ethyl]pyrazol-3-yl]amino]thiazole-5-carboxamide]"
< 50,> 11000,X (100-<1000 fold),Cc1ccc(O)c(C)c1NC(=O)c1cnc(Nc2ccn(CC(=O)N3CCNC(=O)C3)n2)s1 [BAA-150]
50 to 1000,> 11000,X (100-<1000 fold),Cc1ccc(O)c(C)c1NC(=O)c1cnc(Nc2ccn(CC(=O)NC3CCN(C)CC3)n2)s1 [BAA-151]
< 50,> 11000,Y (1000-5000 fold),Cc1ccc(O)c(C)c1NC(=O)c1cnc(Nc2ccn(CC(=O)N3CCN(CCO)CC3)n2)s1 [BAA-153]
< 50,> 11000,Y (1000-5000 fold),Cc1ccc(O)c(C)c1NC(=O)c1cnc(Nc2ccn(CC(=O)N3CCN(C(=O)N(C)C)CC3)n2)s1 [BAA-154]
< 50,> 11000,X (100-<1000 fold),"Cc1ccc(O)c(C)c1NC(=O)c1cnc(Nc2ccn(CC(=O)N3CCC4(CC3)CCN(C(=O)OC(C)(C)C)C4)n2)s1 [BAA-155, tert-butyl 8-[2-[3-[5-[(3-hydroxy-2,6-dimethyl-phenyl)carbamoyl]thiazol-2-ylamino]pyrazol-1-yl]acetyl]-2,8-diazaspiro[4.5]decane-2-carboxylate]"
< 50,> 11000,Y (1000-5000 fold),Cc1ccc(O)c(C)c1NC(=O)c1cnc(Nc2ccn(CC(=O)N3C[C@@H](C)N(C(=O)OC(C)(C)C)[C@@H](C)C3)n2)s1 [BAA-156]
50 to 1000,> 11000,X (100-<1000 fold),Cc1ccc(O)c(C)c1NC(=O)c1cnc(Nc2ccn(CC(=O)NCC3CCN(C(=O)OC(C)(C)C)CC3)n2)s1 [BAA-157]
50 to 1000,> 11000,X (100-<1000 fold),Cc1ccc(O)c(C)c1NC(=O)c1cnc(Nc2ccn(CC(=O)NCCN3CCN(C(=O)OC(C)(C)C)CC3)n2)s1 [BAA-158]
< 50,> 11000,Y (1000-5000 fold),"Cc1ccc(O)c(C)c1NC(=O)c1cnc(Nc2ccn(CC(=O)NCCCO)n2)s1 [BAA-159, N-(3-hydroxy-2,6-dimethyl-phenyl)-2-[[1-[2-(3-hydroxypropylamino)-2-oxo-ethyl]pyrazol-3-yl]amino]thiazole-5-carboxamide]"
< 50,> 11000,Y (1000-5000 fold),Cc1ccc(O)c(C)c1NC(=O)c1cnc(Nc2ccn(CC(=O)N3CCC[C@@H](O)C3)n2)s1 [BAA-161]

IC50 [1] [nM],IC50 [2] [nM],PKMYT1 vs. WEE1 selectivity [2],Structure (SMILES)
< 50,> 11000,Y (1000-5000 fold),"Cc1ccc(O)c(C)c1NC(=O)c1cnc(Nc2ccn(CC(=O)N3CC[C@H](O)C3)n2)s1 [BAA-162, N-(3-hydroxy-2,6-dimethyl-phenyl)-2-[1-[2-[(3S)-3-hydroxypyrrolidin-1-yl]-2-oxo-ethyl]pyrazol-3-ylamino]thiazole-5-carboxamide]"
< 50,> 11000,Y (1000-5000 fold),Cc1ccc(O)c(C)c1NC(=O)c1cnc(Nc2ccn(CC(=O)N3CCC[C@H](O)C3)n2)s1 [BAA-163]
< 50,> 11000,Y (1000-5000 fold),Cc1ccc(O)c(C)c1NC(=O)c1cnc(Nc2ccn(CC(=O)N[C@H](C)CO)n2)s1 [BAA-164]
< 50,> 11000,Y (1000-5000 fold),Cc1ccc(O)c(C)c1NC(=O)c1cnc(Nc2ccn(CC(=O)N[C@@H](C)CO)n2)s1 [BAA-165]
< 50,> 11000,Y (1000-5000 fold),"COCCNC(=O)Cn1ccc(Nc2ncc(C(=O)Nc3c(C)ccc(O)c3C)s2)n1 [BAA-166, N-(3-hydroxy-2,6-dimethyl-phenyl)-2-[[1-[2-(2-methoxyethylamino)-2-oxo-ethyl]pyrazol-3-yl]amino]thiazole-5-carboxamide]"
50 to 1000,> 11000,X (100-<1000 fold),Cc1ccc(O)c(C)c1NC(=O)c1cnc(Nc2ccn(CC(=O)NCCN3CCCC3)n2)s1 [BAA-167]
50 to 1000,> 11000,W (10-<100 fold),"Cc1ccc(O)c(C)c1NC(=O)c1cnc(Nc2ccn(CC(=O)NCCN3CCCCC3)n2)s1 [BAA-168, N-(3-hydroxy-2,6-dimethyl-phenyl)-2-[[1-[2-oxo-2-[2-(1-piperidyl)ethylamino]ethyl]pyrazol-3-yl]amino]thiazole-5-carboxamide (hydrochloride)]"
< 50,> 11000,Y (1000-5000 fold),"Cc1ccc(O)c(C)c1NC(=O)c1cnc(Nc2ccn(CC(=O)N3CCC(C)(O)CC3)n2)s1 [BAA-169, N-(3-hydroxy-2,6-dimethyl-phenyl)-2-[[1-[2-(4-hydroxy-4-methyl-1-piperidyl)-2-oxo-ethyl]pyrazol-3-yl]amino]thiazole-5-carboxamide]"
< 50,> 11000,Y (1000-5000 fold),"Cc1ccc(O)c(C)c1NC(=O)c1cnc(Nc2ccn(CC(=O)NC[C@@H](C)O)n2)s1 [BAA-170, N-(3-hydroxy-2,6-dimethyl-phenyl)-2-[[1-[2-[[(2R)-2-hydroxypropyl]amino]-2-oxo-ethyl]pyrazol-3-yl]amino]thiazole-5-carboxamide]"
< 50,> 11000,X (100-<1000 fold),Cc1ccc(O)c(C)c1NC(=O)c1cnc(Nc2ccn(CC(=O)N3CCCN(C)CC3)n2)s1 [BAA-171]
< 50,> 11000,X (100-<1000 fold),Cc1ccc(O)c(C)c1NC(=O)c1cnc(Nc2ccn(CC(=O)N3C[C@@H]4C[C@H]3CN4C)n2)s1 [BAA-172]
< 50,> 11000,Y (1000-5000 fold),"Cc1ccc(O)c(C)c1NC(=O)c1cnc(Nc2ccn(CC(=O)N3CCC3)n2)s1 [BAA-175, 2-[[1-[2-(azetidin-1-yl)-2-oxo-ethyl]pyrazol-3-yl]amino]-N-(3-hydroxy-2,6-dimethyl-phenyl)thiazole-5-carboxamide]"
< 50,> 11000,Y (1000-5000 fold),Cc1ccc(O)c(C)c1NC(=O)c1cnc(Nc2ccn(CC(=O)N3CCC(F)(F)C3)n2)s1 [BAA-176]
< 50,> 11000,X (100-<1000 fold),CCN1CCN(C(=O)Cn2ccc(Nc3ncc(C(=O)Nc4c(C)ccc(O)c4C)s3)n2)CC1 [BAA-177]
50 to 1000,> 11000,X (100-<1000 fold),Cc1ccc(O)c(C)c1NC(=O)c1cnc(Nc2ccn(CC(=O)N3CCN(C(C)C)CC3)n2)s1 [BAA-178]
< 50,> 11000,Y (1000-5000 fold),Cc1ccc(O)c(C)c1NC(=O)c1cnc(Nc2ccn(CC(=O)N3CC4CCC(C3)N4C(=O)OC(C)(C)C)n2)s1 [BAA-180]

# — patent publication US20260297042A1, “BIARYLAMIDE DERIVATIVES AND THEIR USE AS PKMYT1 INHIBITORS” (CANCER RESEARCH TECHNOLOGY LIMITED, priority 2023, published 2026)
